Here are results for 16 compounds from patent US12396961B2, “Compounds and compositions for intracellular delivery of agents” (ModernaTX, Inc., priority 2015, dated 2025).

Data set [1] in a line: Lipid clearance: % dose remaining in mice (liver) 6 h and 24 h after administration of nanoparticle compositions. It is filed as in vivo, CD-1 mice. Conditions: Table 7c, species not given.
For data set [2], the system named is luciferase (Luc) mRNA expression. Kind of data set: Luc expression (AUC) in CD-1 mice relative to MC3. The settings on record: for Liver/Spleen Ratio / Lipid/MC3 AUC: Table 7c; for Lipid/MC3 AUC: AUC relative to MC3; for Lipid/MC3 AUC CD-1 mice 0.5 mpk: Table 7b, Luc expression; for Lipid/MC3 Luc CD-1 (mice): Luc expression relative to MC3, CD-1 mice. It is filed as in vivo. On the procedure:
FIG. 15 is a graph summarizing luciferase expression levels at 6 h after administration of nanoparticle compositions containing compounds of the disclosure to CD-1 mice at a dose of 0.5 mpk. Total light flux values were acquired via body luminescent imaging (BLI) 6 h after administration. In this Figure, the numbers 1-7 and 10 refer to the compositions containing Compounds 4-10 and MC3 respectively.
In contrast, hEPO expression in rats induced by administration of nanoparticle composition including compound according to one of formulae (I), (Ia1)-(Ia6), (Ib), (II), (IIa), (III), and (IIIa) was substantially lower than that measured for MC3. […] Table 7c and 7d show additional protein expressions and clearance data from compositions with various compounds disclosed herein as compared to with MC3.

Data set [3] is described as follows: Particle size and polydispersity index (Zetasizer Nano ZS). The settings on record: Table 1; for PDI: DOPE 40:20:38.5:1.5, Luc mRNA. It is filed as physicochemical. The method, boiled down:
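Particle size and polydispersity index were measured by dynamic light scattering on a Zetasizer Nano ZS in 1×PBS. Zeta potential was measured in 15 mM PBS.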

For data set [4], the system named is LDLr mRNA / Luc expression. The data set can be described thus: Expression (AUC) in LDLr−/− mice relative to KL22. It is filed as in vivo. The settings on record: Table 7b.
In data set [5] the test system is luciferase (Luc) mRNA expression. Kind of data set: Expression of Luc, bioluminescence (total flux) after intravenous administration to mice. It is filed as in vivo. The settings on record: for Luc expression in mice compared with MC3 (Table 7a): in words; for Total flux (Luc expression), comparison in words over the time points of the table named: mice i.v. 0.5 mg/kg, 3, 6, 24 hours. On the procedure:
In order to monitor how effectively various nanoparticle compositions deliver therapeutic and/or prophylactic agents to targeted cells, different nanoparticle compositions including a particular therapeutic and/or prophylactic agent (for example, a modified or naturally occurring RNA such as an mRNA) are prepared and administered to rodent populations. Mice are intravenously, intramuscularly, intraarterially, or intratumorally administered a single dose including a nanoparticle composition with a formulation such as those provided in Table 1. In some instances, mice may be made to inhale doses. Dose sizes may range from 0.001 mg/kg to 10 mg/kg, where 10 mg/kg describes a dose including 10 mg of a therapeutic and/or prophylactic agent in a nanoparticle composition for each 1 kg of body mass of the mouse. A control composition including PBS may also be employed.
Upon administration of nanoparticle compositions to mice, dose delivery profiles, dose responses, and toxicity of particular formulations and doses thereof can be measured by enzyme-linked immunosorbent assays (ELISA), bioluminescent imaging, or other methods. For nanoparticle compositions including mRNA, time courses of protein expression can also be evaluated. Samples collected from the rodents for evaluation may include blood, sera, and tissue (for example, muscle tissue from the site of an intramuscular injection and internal tissue); sample collection may involve sacrifice of the animals.
The efficacy of the nanoparticle compositions presented in Tables 1, la, 17-1, 19-1, 20-1 and 21-1 was evaluated with a bioluminescence study. Formulations were administered intravenously to mice (n=6) at a dosage of 0.5 mg/kg (mpk) and bioluminescence measured at 3, 6, and 24 hour time points. The standard MC3 formulation and a PBS control were evaluated for comparison.

The test system of data set [6] is hEPO mRNA expression. The data set can be described thus: Expression of hEPO in mice (CD-1). It is filed as in vivo, CD-1 mice. The settings on record: mice; in words. An excerpt:
FIG. 12 is a set of graphs illustrating hEPO expression levels in CD-1 mice dosed with compounds of the disclosure, compared to MC3. PBS is used as control. […] In graphs A-C numbers 1-14 refer to compositions containing the following: 1: Compound 73, 2: Compound 80, 3: Compound 70; 4: Compound 81; 5: Compound 69; 6: Compound 82; 7: Compound 83; 8: Compound 62; 9: Compound 84; 10: Compound 85; 11: Compound 86; 12: Compound 87; 13: MC3; 14: PBS.
FIG. 13 is a graph showing hEPO levels (pg/mL) in CD-1 mice up to −25 h after administration of a nanoparticle composition containing compounds of the disclosure, compared to a composition containing MC3. Numbers 1-13 refer to compositions containing the following: 1: Compound 73, 2: Compound 80, 3: Compound 70; 4: Compound 81; 5: Compound 69; 6: Compound 82; 7: Compound 83; 8: Compound 62; 9: Compound 84; 10: Compound 85; 11: Compound 86; 12: Compound 87; 13: MC3. […]

Each structure is given as a SMILES string.

As to `CCCCCCCCCN(CCCCCCCCC)CCN(CCCCCCCCC)CC(=O)N1CCN(C(=O)CN(CCCCCCCCC)CCCCC(=O)OCCCC)CC1` [Compound 55, Butyl 5-((2-(4-(N-(2-(dinonylamino)ethyl)-N-nonylglycyl)piperazin-1-yl)-2-oxoethyl)(nonyl)amino)pentanoate], the “% Dose Remaining 24 hr” value in data set [1] stood at 1.60%. Besides, in data set [2], the “Liver/Spleen Ratio” value is given as 9 and the “Lipid/MC3 AUC” value was found to be 0.14.

On to `CCCCCCCCCN(CCCOC(=O)CCCCC)CCC1CCN(C(=O)CN(CCCCCCCCC)CCN(CCCCCCCCC)CCCCCCCCC)CC1` [Compound 61, 3-((2-(1-(N-(2-(Dinonylamino)ethyl)-N-nonylglycyl)piperidin-4-yl)ethyl)(nonyl)amino)propyl Hexanoate], for which the “% Dose Remaining 24 hr” value in data set [1] was 0.13%. In data set [2], the “Liver/Spleen Ratio” value stood at 30 and the “Lipid/MC3 AUC” value was found to be 3.27.

Turning to `CCCCCCCCCN(CCCCCCCCC)CCN(CCCCCCCCC)CC(=O)N1CCN(C(=O)CN(CCCCCCCCC)CCCCCCC(=O)OCC)CC1` [Compound 53, Ethyl 7-((2-(4-(N-(2-(dinonylamino)ethyl)-N-nonylglycyl)piperazin-1-yl)-2-oxoethyl)(nonyl)amino)heptanoate], the “% Dose Remaining 24 hr” value in data set [1] turned out to be 0.77%. In data set [2], the “Liver/Spleen Ratio” value is on record as 17 and the “Lipid/MC3 AUC” value was determined as 0.07.

In turn, `CCCCCCCCCCCCN(CCCCCCCCCCCC)CCN(CCCCCCCCCCCC)CC(=O)N1CCN(C(=O)CN(CCCCCCCCC)CCCCCCCCC)CC1` [Compound 7, 2-((2-(Didodecylamino)ethyl)(dodecyl)amino)-1-(4-(dinonylglycyl)piperazin-1-yl)ethan-1-one] gave a PDI in data set [3] of 0.130. Besides, the “Lipid/KL22 AUC LDLr−/− mice 0.5 mpk, LDLr” value in data set [4] is given as 2.46. Also, in data set [2], the “Lipid/MC3 AUC CD-1 mice 0.5 mpk” value turned out to be 1.51.

On to `CCCCCCCCCN(CCCCCCCC(=O)OC)CCC1CCN(C(=O)CN(CCCCCCCCC)CCN(CCCCCCCCC)CCCCCCCCC)CC1` [Compound 57, Methyl 8-((2-(1-(N-(2-(dinonylamino)ethyl)-N-nonylglycyl)piperidin-4-yl)ethyl)(nonyl)amino)octanoate], for which, in data set [1] (6 hr), the “% Dose Remaining 6 hr” value came to 0.88%. In addition, in data set [1], the “% Dose Remaining 24 hr” value is on record as 0.24%. In data set [2], the “Liver/Spleen Ratio” value was found to be 15 and the “Lipid/MC3 AUC” value is 0.85.

`CCCCCCCCCCCCN(CCCCCCCCCCCC)CCN(CCCCCCCCCCCC)CCN1CCN(CCN(CCCCCC(=O)OCCCCC)CCCCCC(=O)OCCCCC)CC1` [Compound 14, Dipentyl 6,6′-((2-(4-(2-((2-(didodecylamino)ethyl)(dodecyl)amino)ethyl)piperazin-1-yl)ethyl)azanediyl)dihexanoate] returned a PDI in data set [3] of 0.008. In addition, in data set [5], the “Luc expression in mice compared with MC3 (Table 7a)” value was “significantly lower”. Moreover, the “Lipid/MC3 Luc CD-1 (mice)” value in data set [2] is listed as 0.070.

With `CCCCCCCCCCCCN(CCCCCCCCCCCC)CCN(CCCCCCCCC)CC(=O)N1CCN(C(=O)CN(CCCCCCCCCCCC)CCCCCCCCCCCC)CC1` [Compound 10, 2-(Didodecylamino)-1-(4-(N-(2-(didodecylamino)ethyl)-N-nonylglycyl)piperazin-1-yl)ethan-1-one], the PDI in data set [3] came to 0.130. For the same compound, in data set [4], the “Lipid/KL22 AUC LDLr−/− mice 0.5 mpk, LDLr” value worked out at 0.71. For the same compound, in data set [2], the “Lipid/MC3 AUC CD-1 mice 0.5 mpk” value turned out to be 1.14.

Consider `CCCCCCCCCN(CCCCCCC(=O)OCC)CCC1CCN(C(=O)CN(CCCCCCCCC)CCN(CCCCCCCCC)CCCCCCCCC)CC1` [Compound 58, Ethyl 7-((2-(1-(N-(2-(dinonylamino)ethyl)-N-nonylglycyl)piperidin-4-yl)ethyl)(nonyl)amino)heptanoate], for which the “% Dose Remaining 24 hr” value in data set [1] was found to be 0.61%. Further, in data set [2], the “Liver/Spleen Ratio” value was 11 and the “Lipid/MC3 AUC” value is recorded as 0.97.

Turning to `CCCCCCCCCCCCN(CCCCCCCCCCCC)CC(=O)N1CCN(C(=O)CN(CCCCCCCCC)CCN(CCCCCCCCC)CCCCCCCCC)CC1` [Compound 8, 2-(Didodecylamino)-1-(4-(N-(2-(dinonylamino)ethyl)-N-nonylglycyl)piperazin-1-yl)ethan-1-one], the PDI in data set [3] was found to be 0.110. Moreover, in data set [4], the “Lipid/KL22 AUC LDLr−/− mice 0.5 mpk, LDLr” value is 3.74. In addition, the “Lipid/MC3 AUC CD-1 mice 0.5 mpk” value in data set [2] is reported as 2.33.

In data set [3], `CCCCCCCCCCCCN(CCN(CCCCCCCCC)CCCCCCCCC)CC(=O)N1CCN(C(=O)CN(CCCCCCCCC)CCCCCCCCC)CC1` [Compound 5, 2-(Dinonylamino)-1-(4-(N-(2-(dinonylamino)ethyl)-N-dodecylglycyl)piperazin-1-yl)ethan-1-one] had a PDI of 0.140. Besides, the “Lipid/KL22 AUC LDLr−/− mice 0.5 mpk, LDLr” value in data set [4] is on record as 1.86. Moreover, in data set [2], the “Lipid/MC3 AUC CD-1 mice 0.5 mpk” value is listed as 2.62.

As for `CCCCCCCCCN(CCCCCCCCC)CCN(CCCCCCCCC)CC(=O)N1CCN(C(=O)CN(CCCCCCCCC)CCCOC(=O)CCCCC)CC1` [Compound 56, 3-((2-(4-(N-(2-(Dinonylamino)ethyl)-N-nonylglycyl)piperazin-1-yl)-2-oxoethyl)(nonyl)amino)propyl Hexanoate], the “% Dose Remaining 24 hr” value in data set [1] stood at 0.16%. Further, in data set [2], the “Liver/Spleen Ratio” value was determined as 29 and the “Lipid/MC3 AUC” value was 1.25.

On to `CCCCCCCCCCCCN(CCCCCCCCCCCC)CCN(CCCCCCCCC)CC(=O)N1CCN(C(=O)CN(CCCCCCCCC)CCCCCCCCC)CC1` [Compound 6, 2-((2-(Didodecylamino)ethyl)(nonyl)amino)-1-(4-(dinonylglycyl)piperazin-1-yl)ethan-1-one], for which the PDI in data set [3] was determined as 0.160. Further, in data set [4], the “Lipid/KL22 AUC LDLr−/− mice 0.5 mpk, LDLr” value is 0.37. Moreover, the “Lipid/MC3 AUC CD-1 mice 0.5 mpk” value in data set [2] was determined as 1.72.

Turning to `CCCCCCCCCCCCN(CCCCCCCCCCCC)CCN(CCCCCCCCCCCC)CCN1CCN(CCN(CCCCCCCCCCCC)CCCCCC(=O)OCCCCC)CC1` [Compound 12, Pentyl 6-((2-(4-(2-((2-(didodecylamino)ethyl)(dodecyl)amino)ethyl)piperazin-1-yl)ethyl)(dodecyl)amino)hexanoate], the “hEPO expression in mice compared with MC3 (Table 7a)” value in data set [6] is “substantially higher”. In data set [3], this compound yielded a PDI of 0.096. Moreover, the “Luc expression in mice compared with MC3 (Table 7a)” value in data set [5] was “significantly lower”. Moreover, the “Lipid/MC3 Luc CD-1 (mice)” value in data set [2] turned out to be 0.21.

As for `CCCCCCCC/C=C\CCCCCCCCN(CCO)CCCCCCCC/C=C\CCCCCCCC` [Compound 17-8, 2-(Di((Z)-octadec-9-en-1-yl)amino)ethan-1-ol], the “Total flux (Luc expression), comparison in words over the time points of the table named” value in data set [5] is “substantially higher flux than compositions including Compounds 17-2, 17-3, and 17-7”.

Regarding `CCCCCCCCCCCCN(CCCCCCCCCCCC)CCN1CCNCC1` [Compound 19-2, N-Dodecyl-N-(2-(piperazin-1-yl)ethyl)dodecan-1-amine], in data set [5], the “Total flux (Luc expression), comparison in words over the time points of the table named” value is given as “lowest total flux”.

As to `CCCCCCCCCCCCN(CCCCCCCCCCCC)CC(=O)N1CCN(C(=O)CN(CCCCCCCCCCCC)CCN(CCCCCCCCC)CCCCCCCCC)CC1` [Compound 9, 2-(Didodecylamino)-1-(4-(N-(2-(dinonylamino)ethyl)-N-dodecylglycyl)piperazin-1-yl)ethan-1-one], in data set [3], the PDI stood at 0.170. Also, the “Size (nm)” value in data set [3] (lipid:DOPE:Chol:PEG-DMG 40:20:38.5:1.5, Luc mRNA, MC3 standard formulation) came out at 78.0 nm. Also, the “Lipid/KL22 AUC LDLr−/− mice 0.5 mpk, LDLr” value in data set [4] is 0.58. Besides, the “Lipid/MC3 AUC CD-1 mice 0.5 mpk” value in data set [2] is 0.73.
